Legend:
[1] = tested on: Setbp1(D/N)-immortalized mouse myeloid progenitors; test: Colony formation on methylcellulose by Setbp1(D/N)-immortalized myeloid progenitors; type: cell-based; conditions: for colony formation: Setbp1 (D/N)-immortalized cells, 1 nM
Description: (§1) In Vitro and In Vivo Testing of Compound (1AA). The activity of Compound 1AA against myeloid neoplasms was first determined in vitro by assessing its inhibitory effect on the colony formation by Setbp1/Setbp1(D/N)-immortalized mouse myeloid progenitors on IMDM methylcellulose medium with 20% horse serum plus mouse Scf (50 ng/ml) and Il-3 (10 ng/ml). The in vivo activity of Compound 1AA was evaluated by assessing its capability to reduce spleen size and to extend the survival of mice transplanted with Setbp1(D/N)-induced leukemia cells. For the generation of leukemic mice, 5×10^5 spleen cells from a primary recipient mouse with Setbp1(D/N)-induced leukemia were injected into the tail vein of each sublethally irradiated (550 rads from a ^137Cs source) B6-Ly5.2 female mouse. Starting from day 10 after transplantation, the recipient mice were treated with Compound (1AA) (33 mg/kg, dissolved in saline) or saline through five intra-peritoneal injections. The activity of Compound 1AA against solid tumors is determined by assessing its growth inhibitory effects on different human solid tumor cell lines in culture. Specifically, cellular ATP levels of liquid cultures of these cell lines are measured at 72 hours after treatment with serially diluted concentrations of Compound 1AA and compared to untreated cells.
(§2) Cell Culture Studies of Immortalized Myeloid Progenitors. […]

[2] = tested on: Setbp1(D/N)-immortalized myeloid progenitors; test: Apoptosis (Annexin V) and differentiation/cytotoxicity (cytospin) in Setbp1(D/N)-immortalized cells; type: cell-based, mouse; conditions: for differentiation/cytotoxicity: Setbp1 (D/N)-immortalized cells, 100 nM
Description: (§3) Cell Culture Studies of Immortalized Myeloid Progenitors. Mouse myeloid progenitors immortalized by 3×FLAG-tagged Setbp1 and Setbp1(D/N) were generated and maintained as previously described using pMYs-3×FLAG-Setbp1-IRES-GFP and pMYs-3×FLAG-Setbp1(D/N)-IRES-GFP viruses respectively (Oakley et al., Blood 119(25): 6099-6108 (2012). Lentiviral transduction of these immortalized cells was carried out by spinoculation in which a mixture of lentivirus and target cells was spun at 2000×g for 90 minutes at 37° C. Transduced cells were selected by treatment with puromycin (2 μg/ml) for 24 hours at 24 hours after lentiviral transduction. Colony formation assays for transduced cells were performed at 48 hours after infection using 1×10^4 puromycin-resistant cells on IMDM methylcellulose medium supplemented with 20% horse serum, mouse Scf (100 ng/ml) and II-3 (10 ng/ml), and puromycin (2 μg/ml) with colony numbers counted after 7 days. For studying effects of KPT-185 (Selleck Chemicals, Houston, TX) in liquid culture, immortalized cells were treated at 2.5×10^5 cells/ml concentration. Detection of apoptosis was performed using PE Annexin V Apoptosis Detection Kit (BD Biosciences). KPT-185 was directly added to methylcellulose medium for assessing its effects on colony formation by immortalized cells.

[3] = tested on: Hoxa9, Hoxa10 and Myb mRNA levels; test: Real-time RT-PCR of Setbp1 target genes in Setbp1-immortalized cells; type: cell-based, mouse; conditions: for Setbp1 target transcription levels of Hoxa9, Hoxa10 and Myb: 12 hours post-treatment, 1 nM
Description: as §3
(§4) Real-Time RT-PCR. For real-time RT-PCR, total RNA was extracted from cells using Nucleospin RNA (Clontech, Duren, Germany). Oligo-dT-primed cDNA samples were prepared using Superscript III (Invitrogen), and real-time PCR analysis was performed in triplicates using SYBR green detection reagents (Invitrogen) on a QuantStudio real time PCR system (Applied Biosystems, Foster City, CA). Relative changes in expression were calculated according to the ΔΔCt method. The cycling conditions were 50° C. for 2 minutes followed by 95° C. for 2 minutes, and then 40 cycles of 95° C. for 15 seconds and 60° C. for 1 minute. […]

[4] = molecular target: T1, interaction between Setbp1(D/N) and XPO1 (Mus musculus, UniProt Q9Z180, D859N); test: Co-immunoprecipitation / Western blotting of nuclear extracts of transfected HEK293T cells; type: cell-based; conditions: 1 μM, 10 μM and 25 μM, 12 hours, M2 immunoprecipitates
T1 construct: expressed in transfected cells; host or cells: HEK293T
Description: Western blotting analyses using indicated specific antibodies were performed on M2 immunoprecipitates prepared from nuclear extracts of HEK293T cells transiently transfected with pMYs-3×FLAG-Setbp1-IRES-GFP and subsequently treated with different concentrations of Compound (1AA) and control DMSO for 12 hours.
Immunoprecipitation. HEK293T cells were transfected with the indicated expression constructs using LipoD293 (SignaGen Laboratories, Rockville, MD) and nuclear extracts were isolated 48 hours after transfection using the Nuclear Complex Co-IP kit (Active Motif, Carlsbad, CA). Nuclear lysates were incubated with either 4 μg of anti-Flag M2 (Sigma Aldrich, St. Louis, MO) or anti-XPO1 (NB100-79802, Novus Biological, Centennial, CO) for 4 hours at 4° C. Subsequently, Dynabeads protein A (Invitrogen, Carlsbad, CA) were added to the nuclear lysate/antibody mixture and incubated for an additional 2 hours at 4° C. Immunoprecipitated proteins were eluted and analyzed by Western blotting analysis. For immunoprecipitation experiments using in vitro transcribed and translated proteins, the corresponding cDNAs were cloned into pCMV-TNT and the TnT T7 Coupled Wheat Germ Extract (Promega, Madison, WI) system was used according to the manufacturer's instructions.
Western Blotting Analysis. […]

[5] = tested on: Setbp1(D/N)-induced leukemia; test: Mice transplanted with Setbp1(D/N)-induced AML, treatment with Compound (1AA); type: in vivo, mouse; conditions: 33 mg/kg, five intra-peritoneal injections from day 10 after transplantation, vs vehicle
Description: as §1

[6] = tested on: Setbp1-immortalized mouse myeloid progenitors; test: Colony formation on methylcellulose by Setbp1-immortalized myeloid progenitors; type: cell-based; conditions: for colony formation: Setbp1-immortalized cells, 1 nM, 5 nM, 10 nM, and 100 nM
Description: as §1, §2

[7] = tested on: Setbp1-immortalized myeloid progenitor cells; test: Apoptosis (Annexin V) and differentiation/cytotoxicity (cytospin) in Setbp1-immortalized cells; type: cell-based, mouse; conditions: for differentiation/cytotoxicity: 100 nM
Description: as §3

[8] = tested on: Hoxa9, Hoxa10 and Myb mRNA levels; test: Real-time RT-PCR of Setbp1(D/N) target genes in Setbp1(D/N)-immortalized cells; type: cell-based, mouse; conditions: for Setbp1 (D/N) target transcription levels of Hoxa9, Hoxa10 and Myb: Setbp1 (D/N)-immortalized cells, 12 hours post-treatment, 1 nM
Description: as §3, §4

[9] = tested on: Setbp1(D/N)-induced leukemia; test: Mice transplanted with Setbp1(D/N)-induced AML, treatment with KPT-330; type: in vivo, mouse
Description: Bone Marrow Transplantation and In Vivo Treatment with KPT-330. For generation of leukemic mice, 1×10^6 spleen cells from a primary recipient mouse with Setbp1(D/N)-induced leukemia were injected into the tail vein of each lethally irradiated (1100 rads from a ^137Cs source) B6-Ly5.2 female mouse along with 7.5×10^5 supporting bone marrow cells from un-irradiated B6-Ly5.2 mice. Starting from day 7 after transplantation, the recipient mice were treated with KPT-330 (20 mg/kg, dissolved in 2% DMSO/49% PEG300/ddH2O) or vehicle through oral gavage once every two days. KPT-330 was purchased from Selleck Chemicals.

T1 sequence (Q9Z180 whole entry D859N): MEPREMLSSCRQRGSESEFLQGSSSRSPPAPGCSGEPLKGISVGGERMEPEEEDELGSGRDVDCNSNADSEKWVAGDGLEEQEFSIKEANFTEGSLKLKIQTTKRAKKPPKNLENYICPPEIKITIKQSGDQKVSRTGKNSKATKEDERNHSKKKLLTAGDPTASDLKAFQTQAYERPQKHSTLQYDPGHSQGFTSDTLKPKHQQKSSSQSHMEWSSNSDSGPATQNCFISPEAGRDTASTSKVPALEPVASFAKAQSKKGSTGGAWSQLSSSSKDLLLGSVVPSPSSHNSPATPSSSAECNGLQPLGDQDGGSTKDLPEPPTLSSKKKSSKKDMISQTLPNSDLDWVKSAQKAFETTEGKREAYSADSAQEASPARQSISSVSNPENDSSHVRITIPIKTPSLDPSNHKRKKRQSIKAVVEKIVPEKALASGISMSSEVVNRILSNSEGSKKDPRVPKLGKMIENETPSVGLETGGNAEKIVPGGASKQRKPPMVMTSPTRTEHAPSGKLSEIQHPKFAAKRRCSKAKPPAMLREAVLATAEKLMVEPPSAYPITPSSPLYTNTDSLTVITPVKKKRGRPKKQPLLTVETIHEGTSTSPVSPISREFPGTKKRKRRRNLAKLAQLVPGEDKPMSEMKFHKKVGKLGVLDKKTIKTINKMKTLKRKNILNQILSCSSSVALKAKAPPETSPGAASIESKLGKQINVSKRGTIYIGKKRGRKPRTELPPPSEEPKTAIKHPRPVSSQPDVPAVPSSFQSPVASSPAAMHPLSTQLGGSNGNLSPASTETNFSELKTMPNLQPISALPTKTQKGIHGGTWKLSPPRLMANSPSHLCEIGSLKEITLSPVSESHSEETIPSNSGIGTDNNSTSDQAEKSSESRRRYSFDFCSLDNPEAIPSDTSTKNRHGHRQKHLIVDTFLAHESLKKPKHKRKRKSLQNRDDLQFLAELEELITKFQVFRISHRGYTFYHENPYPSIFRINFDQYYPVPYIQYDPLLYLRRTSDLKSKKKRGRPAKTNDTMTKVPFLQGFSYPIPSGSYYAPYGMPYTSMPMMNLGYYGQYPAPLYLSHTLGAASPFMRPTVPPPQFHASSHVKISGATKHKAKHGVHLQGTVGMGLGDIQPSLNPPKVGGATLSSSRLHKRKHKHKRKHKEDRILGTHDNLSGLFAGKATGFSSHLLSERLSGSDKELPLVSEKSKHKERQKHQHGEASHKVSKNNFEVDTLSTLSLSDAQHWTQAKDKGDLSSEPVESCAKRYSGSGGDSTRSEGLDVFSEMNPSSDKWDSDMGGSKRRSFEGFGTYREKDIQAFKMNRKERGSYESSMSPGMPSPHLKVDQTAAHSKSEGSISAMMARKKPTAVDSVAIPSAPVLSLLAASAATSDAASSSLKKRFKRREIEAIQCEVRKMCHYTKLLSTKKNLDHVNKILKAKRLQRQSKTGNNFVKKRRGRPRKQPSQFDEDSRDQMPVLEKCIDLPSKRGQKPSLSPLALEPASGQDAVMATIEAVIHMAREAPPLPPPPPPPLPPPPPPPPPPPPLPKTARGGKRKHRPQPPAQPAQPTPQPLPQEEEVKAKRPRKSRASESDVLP

Cc1c2cc[n+](CCN3CCCCC3)cc2c(C)c2c1[nH]c1ccc(O)cc12.[Br-] [Compound (1AA)]
colony formation ([1]; 5 nM, 10 nM, and 100 nM): inhibits colony formation | differentiation/cytotoxicity [2]: induces differentiation/cytotoxicity | Setbp1 target transcription levels of Hoxa9, Hoxa10 and Myb ([3]; 10 nM, 100 nM and 500 nM): reduces Setbp1 target transcription levels | interaction between Setbp1(D/N) and XPO1 [4]: disrupts the interaction | spleen size (spleen weights when moribund) [5]: reduced the spleen size | survival of leukemic mice ([5]; p=0.0034, Log-rank test): significantly extended the survival | colony formation [6]: inhibits colony formation | differentiation/cytotoxicity [7]: induces differentiation/cytotoxicity | Setbp1 (D/N) target transcription levels of Hoxa9, Hoxa10 and Myb ([8]; 10 nM, 100 nM and 500 nM): reduces Setbp1 (D/N) target transcription levels

Nc1ccc(Cn2ccc3c4c(N)nc(N)nc4ccc32)cc1 [Compound (2AA)]
colony formation ([1]; 10 nM, 50 nM, 100 nM, 300 nM and 500 nM): inhibits colony formation | differentiation/cytotoxicity [2]: induces differentiation/cytotoxicity | Setbp1 target transcription levels of Hoxa9, Hoxa10 and Myb ([3]; 50 nM, 100 nM and 300 nM): reduces Setbp1 target transcription levels | colony formation [6]: inhibits colony formation | differentiation/cytotoxicity [7]: induces differentiation/cytotoxicity | Setbp1 (D/N) target transcription levels of Hoxa9, Hoxa10 and Myb ([8]; 50 nM, 100 nM and 300 nM): reduces Setbp1 (D/N) target transcription levels

COc1cc(-c2ncn(/C=C\C(=O)OC(C)C)n2)cc(C(F)(F)F)c1 [KPT-185, reference compound]
relative colony-forming potential ([1]; Setbp1(D/N)-immortalized myeloid progenitors, indicated concentrations, vs DMSO): significantly reduces colony-forming potential | apoptosis (Annexin V staining) ([2]; Setbp1(D/N)-immortalized cells, 48 hours after treatment, vs DMSO): induces apoptosis | differentiation (cytospin) ([2]; Setbp1(D/N)-immortalized cells, 72 hours after treatment): induces apoptosis and differentiation | Hoxa9/Hoxa10/Myb mRNA levels ([3]; 300 nM, 2.5 hours after treatment, vs DMSO): significantly down-regulated | relative colony-forming potential ([6]; Setbp1-immortalized myeloid progenitors, indicated concentrations, vs DMSO): significantly reduces colony-forming potential | apoptosis (Annexin V staining) ([7]; 48 hours after treatment, vs DMSO): induces apoptosis | differentiation: number of mature neutrophils (cytospin) ([7]; 72 hours after treatment): significantly increase | Hoxa9/Hoxa10/Myb mRNA levels ([8]; Setbp1(D/N)-immortalized cells, 300 nM, 2.5 hours after treatment, vs DMSO): significantly down-regulated

O=C(/C=C\n1cnc(-c2cc(C(F)(F)F)cc(C(F)(F)F)c2)n1)NNc1cnccn1 [KPT-330]
extension of survival time ([9]; 20 mg/kg oral gavage every 2 days from day 7, vehicle mice moribund in 17 days): ≤ 50% | survival of transplanted mice ([9]; 20 mg/kg oral gavage every 2 days from day 7 after transplantation, vs vehicle, p=0.012, Log-rank test): prolonged the survival

From patent US12070462B2, “SETBP1 inhibitors for the treatment of myeloid neoplasms and solid tumors” (The Henry M. Jackson Foundation for the Advancement of …, priority 2018, dated 2024)
